Assay results published in US20030199017A1, “Method for releasing a product comprising chemical oxidation, method for detecting said product and uses thereof” (Proteus, priority 2000, published 2003).

Legend:
[1] = molecular target: T1, Candida antarctica lipase (Moesziomyces antarcticus, UniProt P41365); assay: Candida antarctica lipase activity based on temperature (release of para-nitrophenol, colorimetry at 414 nm); assay type: biochemical; conditions: PIPES buffer 0.1 M pH 7, 40 minutes
Procedure: (§1) The hydrolytic activity of the Candida antarctica lipase was tested on 2 substrates: 2-hydroxy-4-p-nitrophenyl-butyl-decanoate and p-nitro-phenylbutyrate. The lipase activity is detected after hydrolysis of ester functions of substrates that produce the release (direct or indirect) of yellow-colored para-nitrophenol that is measured by colorimetry at 414 nm. The tests were carried out at different temperatures and pH.
(§2) The stock solutions of 2-hydroxy-4-p-nitrophenyl-butyl-decanoate and para-nitrophenolbutyrate (SIGMA) are prepared at the concentration of 20 mmol respectively in acetonitrile and isopropanol. The concentration of lipase B that is used is 0.01 mg/ml in a phosphate buffer (100 mmol, pH 7).
(§3) 74 μl of PIPES buffer (100 mmol, pH 7) and 10 μl of a lipase solution at 0.01 mg/ml are added to 13.6 μmol of 2-hydroxy-4-p-nitrophenyl-butyl-decanoate. The reaction is incubated in a water bath for 40 minutes at 50, 60, 70, 80 and 95° C. The samples are then removed from the water bath. Then, 40 μl of NaIO4 (100 mmol) and 4 μl of BSA (50 mg/ml) are added to the mixture. The pH of the solution is then adjusted to 10 by adding 40 μl of an Na2CO3 solution at 0.2 M. The para-nitrophenol that is released is then measured with a colorimeter at 414 nm.
(§4) 74 μl of PIPES buffer (100 mmol, pH 7) and 10 μl of a lipase solution at 0.01 mg/ml are added to 13.6 μmol of para-nitrophenylbutyrate. The reaction is incubated in a water bath for 40 minutes at 50, 60, 70, 80 and 95° C. The samples are then removed from the water bath, and the pH of the solution is adjusted to 10 with a 0.2 M Na2CO3 solution. The released para-nitrophenol is then measured with a calorimeter at 414 nm.
(§5) The activity of the lipase based on the incubation temperature was measured by using 2-hydroxy-4-p-nitrophenyl-butyl-decanoate and the para-nitrophenylbutyrate commercial substrate. […] The activities are expressed in %. The enzymatic reactions were carried out in the PIPES buffer (0.1 M, pH 7) at 50, 60, 70, 80 and 95° C. for 40 minutes. A negative control without enzyme was also carried out by using the same experimental conditions.

[2] = negative control without enzyme, temperature series (para-nitrophenol released from the substrate); assay type: physicochemical; conditions: PIPES buffer 0.1 M pH 7, 40 minutes, no enzyme
Procedure: as §3
A negative control without enzyme was carried out under the same experimental conditions.
as §4, §5

[3] = molecular target: T1, Candida antarctica lipase; assay: Candida antarctica lipase activity based on the pH of the solution (release of para-nitrophenol, 414 nm); assay type: biochemical; conditions: 40 minutes
Procedure: as §1, §2
The enzymatic activity of the Candida antarctica lipase was carried out at different pH levels by using buffers (100 mmol) listed in Table VII below.
74 μl of buffer at the desired pH (100 mmol) and 10 μl of a lipase solution at 0.01 mg/ml are added to 13.6 μmol of 2-hydroxy-4-p-nitrophenyl-butyl-decanoate. The reaction is incubated in a water bath for 40 minutes at 60° C. The samples are then removed from the water bath. Then, 40 μl of NaIO4 (100 mmol) and 4 μl of BSA (50 mg/ml) are added to the mixture. The pH of the solution is then adjusted to 10 by adding 40 μl of a solution of Na2CO3 at 0.2 M. The para-nitrophenol that is released is then measured with a calorimeter at 414 nm.
(§6) 74 μl of buffer at the desired pH (100 mmol) and 10 μl of a lipase solution at 0.01 mg/ml are added to 13.6 μmol of para-nitrophenylbutyrate. The reaction is incubated in a water bath for 40 minutes at 60° C. The samples are then removed from the water bath, and the pH of the solution is adjusted to 10 with a 0.2 M Na2CO3 solution. The para-nitrophenol that is released is then measured with a colorimeter at 414 nm.
(§7) The hydrolytic activity of the lipase based on the pH of the solution was also measured. […] The activities are expressed in %. The enzymatic reactions were incubated at 60° C. for 40 minutes at pH 3, 4, 5, 6.5, 7 and 8. A negative control without enzyme was also carried out by using the same experimental conditions.

[4] = negative control without enzyme, pH series (para-nitrophenol released from the substrate); assay type: physicochemical; conditions: 40 minutes, no enzyme
Procedure: as §6, §7

[5] = stability of the substrates / oxidation by periodate in the presence of BSA; assay type: physicochemical; conditions: aqueous media
From the text: The oxidation of 1,2 diols and amino alcohols by periodate in an aqueous medium is a reaction that is well known to one skilled in the art. This reaction provides a purely chemical alternative for the conversion of alcohols into carbonyl groups in aqueous medium with a high chemoselectivity in the presence of other functional groups.
The substrates acetates 1, amide 5 and epoxide 6 are stable in the presence of periodate and BSA […] the aqueous media. […] Under optimized reaction conditions using 100 μm of substrate, 1 mmol of sodium periodate, 2 mg/ml of BSA in a borate buffer with a pH of 8.8, diol 2 is transformed into umbelliferone with a yield of 72% without observable secondary reactions. […] The oxidation of amino alcohol 6 takes place with a yield of 85% under the same conditions.

T1 sequence (P41365 26-342): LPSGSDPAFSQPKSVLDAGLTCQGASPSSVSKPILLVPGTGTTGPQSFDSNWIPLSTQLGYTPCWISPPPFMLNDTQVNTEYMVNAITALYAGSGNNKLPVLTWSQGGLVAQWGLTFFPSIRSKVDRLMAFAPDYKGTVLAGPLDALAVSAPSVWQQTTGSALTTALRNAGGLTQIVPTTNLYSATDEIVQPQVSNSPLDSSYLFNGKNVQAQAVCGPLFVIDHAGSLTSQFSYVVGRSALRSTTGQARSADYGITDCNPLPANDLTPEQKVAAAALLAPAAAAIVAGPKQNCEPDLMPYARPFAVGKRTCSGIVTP

| Compound | stability in the presence of periodate and BSA [5] | activity of the Candida antarctica lipase (Lipase B) ([1]; 50° C.) | activity of the Candida antarctica lipase (Lipase B) ([1]; 60° C.) | activity of the Candida antarctica lipase (Lipase B) ([1]; 70° C.) | activity of the Candida antarctica lipase (Lipase B) ([1]; 80° C.) | activity of the Candida antarctica lipase (Lipase B) ([1]; 95° C.) | activity signal Without enzyme ([2]; 50° C.) | activity signal Without enzyme ([2]; 60° C.) | activity signal Without enzyme ([2]; 70° C.) | activity signal Without enzyme ([2]; 80° C.) | activity signal Without enzyme ([2]; 95° C.) | activity of the Candida antarctica lipase (Lipase B) ([3]; pH 3, 60° C.) | activity of the Candida antarctica lipase (Lipase B) ([3]; pH 4, 60° C.) | activity of the Candida antarctica lipase (Lipase B) ([3]; pH 5, 60° C.) | activity of the Candida antarctica lipase (Lipase B) ([3]; pH 6.5, 60° C.) | activity of the Candida antarctica lipase (Lipase B) ([3]; pH 7, 60° C.) | activity of the Candida antarctica lipase (Lipase B) ([3]; pH 8, 60° C.) | activity signal Without enzyme ([4]; pH 3, 60° C.) | activity signal Without enzyme ([4]; pH 4, 60° C.) | activity signal Without enzyme ([4]; pH 5, 60° C.) | also measured |
| --- | --- | --- | --- | --- | --- | --- | --- | --- | --- | --- | --- | --- | --- | --- | --- | --- | --- | --- | --- | --- | --- |
| CCCCCCCCCC(=O)OCC(O)CCc1ccc([N+](=O)[O-])cc1 (stereo not drawn) [2-hydroxy-4-p-nitrophenyl-butyl-decanoate] |  | 100% | 75.9% | 61.5% | 44.2% | 26.1% | 8.7% | 9.4% | 9.5% | 8.1% | 8.6% | 58.9% | 80.9% | 96.1% | 100% | 72% | 40% | 3.9% | 2.7% | 2.6% | activity signal Without enzyme ([4]; pH 6.5, 60° C.): 2.9%; activity signal Without enzyme ([4]; pH 7, 60° C.): 3.4%; activity signal Without enzyme ([4]; pH 8, 60° C.): 2.8% |
| O=C(Cc1ccccc1)NCC(O)CCOc1ccc2ccc(=O)oc2c1 (stereo not drawn) [amide 5, 1-Phenylacetamido-4-(7-coumarinyloxy)-2-butanol] | stable |  |  |  |  |  |  |  |  |  |  |  |  |  |  |  |  |  |  |  |  |
| CCCC(=O)Oc1ccc([N+](=O)[O-])cc1 [p-Nitrophenylbutyrate, p-nitro-phenylbutyrate, reference compound] |  | 100% | 75.4% | 60.4% | 55.9% | 66.7% | 83.6% | 67.3% | 59.5% | 59.8% | 71.5% | 94.2% | 73% | 100% | 79.5% | 60.8% | 103.9% | 54.9% | 63.6% | 65.6% | activity signal Without enzyme ([4]; pH 6.5, 60° C.): 69.2%; activity signal Without enzyme ([4]; pH 7, 60° C.): 51.4%; activity signal Without enzyme ([4]; pH 8, 60° C.): 103.9% |

Second part, led by results:

| stability in the presence of periodate and BSA [5] | Compound | activity of the Candida antarctica lipase (Lipase B) ([1]; 50° C.) | activity of the Candida antarctica lipase (Lipase B) ([1]; 60° C.) | activity of the Candida antarctica lipase (Lipase B) ([1]; 70° C.) | activity of the Candida antarctica lipase (Lipase B) ([1]; 80° C.) | activity of the Candida antarctica lipase (Lipase B) ([1]; 95° C.) | activity signal Without enzyme ([2]; 50° C.) | activity signal Without enzyme ([2]; 60° C.) | activity signal Without enzyme ([2]; 70° C.) | activity signal Without enzyme ([2]; 80° C.) | activity signal Without enzyme ([2]; 95° C.) | activity of the Candida antarctica lipase (Lipase B) ([3]; pH 3, 60° C.) | activity of the Candida antarctica lipase (Lipase B) ([3]; pH 4, 60° C.) | activity of the Candida antarctica lipase (Lipase B) ([3]; pH 5, 60° C.) | activity of the Candida antarctica lipase (Lipase B) ([3]; pH 6.5, 60° C.) | activity of the Candida antarctica lipase (Lipase B) ([3]; pH 7, 60° C.) | activity of the Candida antarctica lipase (Lipase B) ([3]; pH 8, 60° C.) | activity signal Without enzyme ([4]; pH 3, 60° C.) | activity signal Without enzyme ([4]; pH 4, 60° C.) | activity signal Without enzyme ([4]; pH 5, 60° C.) | also measured |
| --- | --- | --- | --- | --- | --- | --- | --- | --- | --- | --- | --- | --- | --- | --- | --- | --- | --- | --- | --- | --- | --- |
| release umbelliferone | NCC(O)CCOc1ccc2ccc(=O)oc2c1 (stereo not drawn) [amino alcohol 6, 1-Amino-4-(7-coumarinyloxy)-2-butanol] |  |  |  |  |  |  |  |  |  |  |  |  |  |  |  |  |  |  |  |  |
| release umbelliferone | O=c1ccc2ccc(OCC[C@H](O)CO)cc2o1 [diol 2, (S)-4-(7-coumarinyloxy)-1,2-butanediol] |  |  |  |  |  |  |  |  |  |  |  |  |  |  |  |  |  |  |  |  |
| stable | O=c1ccc2ccc(OCC[C@H]3CO3)cc2o1 [epoxide 6, (S)-4-(7-coumarinyloxy)-1,2-epoxybutane] |  |  |  |  |  |  |  |  |  |  |  |  |  |  |  |  |  |  |  |  |
